The text below walks through data of patent US20020103111A1, “Inhibitors of MAdCAM-1-mediated interactions and methods of use therefor” (Millennium Pharmaceuticals, Inc., priority 1996, published 2002).

For this assay, the target named is T1, murine MAdCAM-1 (MAdCAM-1/mCk fusion protein); α4β7-bearing HUT 78 cells (Homo sapiens, UniProt P13612+P26010).
T1 construct: host or cells: HUT 78 cells (endogenous α4β7); The MAdCAM-1/mCk partner was made in house in baculovirus-infected Sf9 insect cells, used as neat supernatant and captured by rat anti-mCk antibody
Description: Adhesion of HUT 78 cells to MAdCAM-1/mCk fusion protein bound via capture antibody. It is filed as cell-based. Conditions: for IC50: HUT 78 cell adhesion to MAdCAM-1/mCk, average of two determinations. The protocol: The compounds of the present invention were evaluated for their biological properties.
A soluble fusion protein comprising murine MAdCAM-1 was produced in a baculovirus expression system and used in the adhesion assay. A fusion gene in which sequences encoding the signal peptide and extracellular domain of murine MAdCAM-1 were fused to sequences encoding a constant region of the murine kappa light chain (mCk) was constructed, and cloned into a baculovirus shuttle vector. Fusion protein produced from the resulting construct contained the integrin binding sequences of murine MAdCAM-1 at the amino-terminus, and the mCk sequence at the carboxy-terminus. Recombinant baculovirus encoding the fusion protein was harvested from infected Sf9 insect cells.
Human T-cell lymphoma cells (HUT 78 cells) activated with Mn^+2 were used for the adhesion assay in a 96-well format. HUT 78 cells were labelled by preincubation with ECECF-AM stain (Molecular Probes). Assays were conducted in a final volume of 200 μl. The adhesion of HUT 78 cells to MAdCAM-1/mCk fusion protein bound to wells via rat anti-mCk capture antibody was assessed in the presence or absence of each compound. […] Percent inhibition and IC50 values were determined.
HUT 78 cells (a human T cell lymphoma line; American Type Culture Collection, Accession No. ATCC TIB 161) were maintained in culture for up to one month in RPMI 1640 supplemented with 10% FCS, 20 mM HEPES, and Pen-Strep (1:100). Just prior to use in adhesion assays, cells were labeled with BCECF-AM as follows: 1×10^7 cells were pelleted at 1000 rpm for 10 minutes and resuspended in 25 mL cold PBS (Phosphate Buffered Saline). The cells were pelleted again, resuspended in cold PBS, and pelleted again. The cell pellet was resuspended in 25 ml PBS and labeled with 50 μl BCECF-AM (1 μg/μL in DMSO) for 30 minutes at 37° C. (BCECF-AM; 2′,7′-bis-(2-carboxyethyl)-5-(and-6)-carboxyflourescein, acetoxymethyl ester). The labeled cells were pelleted at 700 rpm for 10 minutes, resuspended in 25 ml cold Assay Buffer and pelleted.
The assay was performed in a 96-well format. Plates were coated overnight at 4° C. with 53 μl/well of a 5 μg/mL solution of rat anti-mCk in carbonate buffer. The plates were blocked for 1 hour at 37° C. with 100 μL/well of 1% BSA in PBS. The BSA/PBS solution was removed, and 50 μL of MAdCAM-mCk supernatant was added neat to each well. The assay was conducted under conditions in which capture antibody was the limiting reagent.
Cell adhesion was measured in the presence or absence of compounds. The compounds were resuspended in 100% DMSO, subsequently diluted 1:10 in water, and finally diluted again 1:10 in the assay: 50 μL of 2X Assay Bufler, 30 μL water, 20 μL of compound were added to each well. […] Cell adhesion occurred in 30 minutes at ambient temperature, after which plates were washed with 50 mM Tris/2 mM MnCl2, pH 7.2 using an EL 404 Microplate Autowasher (BIO-TEK Instruments) using the following wash parameters: wash volume=500 μL; two wash cycles; wash depth=80; aspirating after each wash.
Additional determinations were conducted as needed, so that each IC50 was determined over a range which encompassed the IC50. Over this range, Four different concentrations were tested in duplicate.
For each compound, a ratio was determined as follows: An average of the readings from duplicate wells was divided by an average of eight control wells (adhesion in the absence of any compound). […] In addition, the concentration (μM) of compound used was plotted against the resulting ratios.
The IC50 was then determined using Kaleidograph software (Abelbeck Software). The complete procedure was repeated again using duplicate wells for each point.

Where [1] appears, read: HuT78, 500 μM compound, HUT 78 cells, Mn2+ activated, read-out: % Adhesion Inhibition 500 μM.

Molecules are shown by their SMILES. Read-outs that look alike come from different tables or passages of the source. Bridge positions count the residues as written; N and C are the ends. Square brackets hold non-standard residues; d marks the D form. Peptide text beside a SMILES is read from it. * marks the point of attachment. Butanoyl(4-pyren-1-yl) = O=C(CCCc1ccc2ccc3cccc4ccc1c2c34)*; NMeL = CN[C@@H](CC(C)C)C(=O)O

T1 sequence (P13612 34-1032): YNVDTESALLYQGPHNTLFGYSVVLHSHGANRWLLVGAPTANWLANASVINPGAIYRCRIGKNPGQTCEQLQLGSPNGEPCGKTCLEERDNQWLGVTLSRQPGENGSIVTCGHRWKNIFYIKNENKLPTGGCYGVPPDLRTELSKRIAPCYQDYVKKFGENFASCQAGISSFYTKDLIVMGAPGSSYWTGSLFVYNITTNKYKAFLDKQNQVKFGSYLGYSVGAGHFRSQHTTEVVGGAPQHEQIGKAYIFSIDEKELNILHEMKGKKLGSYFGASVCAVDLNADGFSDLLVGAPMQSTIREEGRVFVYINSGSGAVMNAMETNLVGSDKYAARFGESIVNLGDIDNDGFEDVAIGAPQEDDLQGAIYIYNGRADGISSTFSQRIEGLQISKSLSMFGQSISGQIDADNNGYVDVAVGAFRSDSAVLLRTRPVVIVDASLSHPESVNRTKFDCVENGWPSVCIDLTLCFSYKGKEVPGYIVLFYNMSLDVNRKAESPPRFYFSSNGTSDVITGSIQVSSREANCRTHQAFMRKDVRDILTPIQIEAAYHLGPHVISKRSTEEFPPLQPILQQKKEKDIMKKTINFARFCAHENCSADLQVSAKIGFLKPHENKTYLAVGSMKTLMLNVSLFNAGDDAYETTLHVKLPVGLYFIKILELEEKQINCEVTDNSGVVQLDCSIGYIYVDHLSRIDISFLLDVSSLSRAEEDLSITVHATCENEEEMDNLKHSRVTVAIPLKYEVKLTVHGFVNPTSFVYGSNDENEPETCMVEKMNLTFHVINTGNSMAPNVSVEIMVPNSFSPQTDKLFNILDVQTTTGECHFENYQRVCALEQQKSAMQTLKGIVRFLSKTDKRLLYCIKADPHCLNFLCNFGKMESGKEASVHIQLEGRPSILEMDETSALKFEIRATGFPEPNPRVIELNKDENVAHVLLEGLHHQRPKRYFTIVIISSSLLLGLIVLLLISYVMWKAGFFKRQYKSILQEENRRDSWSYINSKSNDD
T1 sequence (P26010 20-798): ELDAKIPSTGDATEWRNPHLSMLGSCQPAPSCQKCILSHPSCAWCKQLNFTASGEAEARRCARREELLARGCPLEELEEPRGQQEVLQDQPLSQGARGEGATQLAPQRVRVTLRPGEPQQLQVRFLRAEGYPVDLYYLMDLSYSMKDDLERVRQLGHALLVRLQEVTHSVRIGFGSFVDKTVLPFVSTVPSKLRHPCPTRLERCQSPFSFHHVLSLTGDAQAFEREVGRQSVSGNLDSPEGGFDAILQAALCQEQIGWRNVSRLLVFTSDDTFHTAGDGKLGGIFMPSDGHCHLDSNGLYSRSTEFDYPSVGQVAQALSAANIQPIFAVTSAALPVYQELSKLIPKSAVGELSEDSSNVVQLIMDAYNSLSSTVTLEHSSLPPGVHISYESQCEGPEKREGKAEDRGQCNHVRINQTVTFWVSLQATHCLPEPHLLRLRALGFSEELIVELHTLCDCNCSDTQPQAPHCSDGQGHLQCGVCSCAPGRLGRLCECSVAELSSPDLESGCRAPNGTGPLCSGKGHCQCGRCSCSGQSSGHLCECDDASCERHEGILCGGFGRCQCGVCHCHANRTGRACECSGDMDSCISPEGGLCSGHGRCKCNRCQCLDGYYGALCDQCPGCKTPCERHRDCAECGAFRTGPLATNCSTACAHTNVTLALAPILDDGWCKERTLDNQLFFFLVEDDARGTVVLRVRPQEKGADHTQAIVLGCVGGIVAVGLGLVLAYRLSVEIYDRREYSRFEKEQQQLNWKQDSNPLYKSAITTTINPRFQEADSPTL

Regarding `CC(=O)N[C@H]1CSSC[C@@H](C(N)=O)NC(=O)[C@H](CC(C)C)NC(=O)[C@H](CO)NC(=O)[C@H]([C@@H](C)O)NC(=O)[C@H](CC(=O)O)NC(=O)[C@H](CC(C)C)NC1=O` [Example 4, Ac-Cys*-Leu-Asp-Thr-Ser-Leu-Cys*] (Ac-CLDTSLC-NH2; disulfide 1-7), the inhibition at 250 µM (HuT78, @250 μM compound, HUT 78 cells, read-out: % Adhesion Inhibition) was determined as 51%.
`CC(=O)N[C@H]1CSSC[C@@H](C(N)=O)NC(=O)CNC(=O)[C@H](CC(C)C)NC(=O)[C@H](CO)NC(=O)[C@H]([C@@H](C)O)NC(=O)[C@H](CC(=O)O)NC(=O)[C@H](CC(C)C)NC(=O)CNC1=O` [Example 5] (Ac-CGLDTSLGC-NH2; disulfide 1-9) returned an inhibition at 200 µM (HuT78, @200 μM compound, HUT 78 cells) of 45%.
Regarding `CC(=O)N[C@@H](CCCNC(=N)N)C(=O)NCC(=O)N[C@@H](CC(C)C)C(=O)N[C@@H](CC(=O)O)C(=O)N[C@H](C(=O)N[C@@H](CO)C(=O)N[C@@H](CC(C)C)C(N)=O)[C@@H](C)O` [Example 8, Ac-Arg-Gly-Leu-Asp-Thr-Ser-Leu] (Ac-RGLDTSL-NH2), the inhibition at 500 µM under setting [1] worked out at 35%.
Same read-out and setting: the figure for `CC(=O)NCC(=O)N[C@@H](CC(C)C)C(=O)N[C@@H](CC(=O)O)C(=O)N[C@H](C(=O)N[C@@H](CO)C(=O)N[C@@H](CC(C)C)C(N)=O)[C@@H](C)O` [Example 9, Ac-Gly-Leu-Asp-Thr-Ser-Leu] (Ac-GLDTSL-NH2) is 58%.
On to `CC(=O)N[C@@H](CCCNC(=N)N)C(=O)NCC(=O)N[C@@H](CC(C)C)C(=O)N[C@@H](CC(=O)O)C(=O)N[C@H](C(=O)N[C@@H](CO)C(N)=O)[C@@H](C)O` [Example 12, Ac-Arg-Gly-Leu-Asp-Thr-Ser] (Ac-RGLDTS-NH2), for which the IC50 (read-out: IC50) came to 1790 µM. For the same compound, under setting [1], the inhibition at 500 µM is 31%.
With `CC(=O)N(C)[C@@H](CC(C)C)C(=O)N[C@@H](CC(C)C)C(=O)N[C@@H](CC(=O)O)C(=O)N[C@H](C(=O)N[C@@H](CO)C(=O)N[C@@H](CC(C)C)C(N)=O)[C@@H](C)O` [Example 17, Ac-MeLeu-Leu-Asp-Thr-Ser-Leu] (Ac-[NMeL]LDTSL-NH2), the inhibition at 500 µM under setting [1] turned out to be 28%.
Consider `CC(C)C[C@H](NC(=O)[C@H](CO)NC(=O)[C@@H](NC(=O)[C@H](CC(=O)O)NC(=O)[C@H](CC(C)C)NC(=O)CCCCCc1ccccc1)[C@@H](C)O)C(N)=O` [Example 18, Phx-Leu-Asp-Thr-Ser-Leu], for which, for the setting “read-out: IC50”, the IC50 was 818 µM. Besides, the inhibition at 500 µM under setting [1] amounted to 32%.
The like results for `CC(C)Cc1ccc(C(C)C(=O)N[C@@H](CC(C)C)C(=O)N[C@@H](CC(=O)O)C(=O)N[C@H](C(=O)N[C@@H](CO)C(=O)N[C@@H](CC(C)C)C(N)=O)[C@@H](C)O)cc1` (stereo partly drawn) [Example 19, Impa-Leu-Asp-Thr-Ser-Leu] were, in that order, 1140 µM and 44%.
The like results for `CC(C)C[C@H](NC(=O)[C@H](CO)NC(=O)[C@@H](NC(=O)[C@H](CC(=O)O)NC(=O)[C@H](CC(C)C)NC(=O)Cc1ccc(-c2ccccc2)cc1)[C@@H](C)O)C(N)=O` [Example 20, Bipa-Leu-Asp-Thr-Ser-Leu] were, in that order, 485 µM and 54%.
Turning to `CC(C)C[C@H](NC(=O)[C@H](CO)NC(=O)[C@@H](NC(=O)[C@H](CC(=O)O)NC(=O)[C@H](CC(C)C)NC(=O)Cc1cccc2ccccc12)[C@@H](C)O)C(N)=O` [Example 21, Npa-Leu-Asp-Thr-Ser-Leu], the IC50 (read-out: IC50) was 548 µM. In addition, under setting [1], the inhibition at 500 µM was 39%.
The corresponding values for `CCCCCCCc1ccc(C(=O)N[C@@H](CC(C)C)C(=O)N[C@@H](CC(=O)O)C(=O)N[C@H](C(=O)N[C@@H](CO)C(=O)N[C@@H](CC(C)C)C(N)=O)[C@@H](C)O)cc1` [Example 22, Hbz-Leu-Asp-Thr-Ser-Leu] are 401 µM and 51%.
`CC(C)C[C@H](NC(=O)[C@H](CO)NC(=O)[C@@H](NC(=O)[C@H](CC(=O)O)NC(=O)[C@H](CC(C)C)NC(=O)CCCc1ccc2ccc3cccc4ccc1c2c34)[C@@H](C)O)C(N)=O` [Example 23, Pba-Leu-Asp-Thr-Ser-Leu]: the inhibition at 50 µM (HuT78, read-out: % Adhesion Inhibition) amounted to 88%. The same compound had an IC50 (IC50 (μM)) of 2.8 µM.
With `CC(C)C[C@H](NC(=O)[C@H](CO)NC(=O)[C@@H](NC(=O)[C@H](CC(=O)O)NC(=O)[C@H](CC(C)C)NC(=O)C1C(C)(C)C1(C)C)[C@@H](C)O)C(N)=O` [Example 25, Tpc-Leu-Asp-Thr-Ser-Leu], the half-maximal inhibitory concentration (IC50) (read-out: IC50) was determined as 121 µM. Further, the inhibition at 500 µM under setting [1] turned out to be 39%.
`CC(C)C[C@H](NC(=O)[C@H](CO)NC(=O)[C@@H](NC(=O)[C@H](CC(=O)O)NC(=O)[C@H](CC(C)C)NC(=O)Cc1ccccc1)[C@@H](C)O)C(N)=O` [Example 26, Pha-Leu-Asp-Thr-Ser-Leu]: for the setting “HuT78, read-out: % Adhesion Inhibition 500 μM”, the inhibition at 500 µM was 38%. Also, the IC50 (IC50 (μM)) was 2130 µM.
`CC(C)C[C@H](NC(=O)[C@H](CO)NC(=O)[C@@H](NC(=O)[C@H](CC(=O)O)NC(=O)[C@H](CC(C)C)NC(=O)C(c1ccccc1)(c1ccccc1)c1ccccc1)[C@@H](C)O)C(N)=O` [Example 28, Tpa-Leu-Asp-Thr-Ser-Leu]: under “read-out: IC50”, the IC50 was found to be 0.3 µM.
For the setting “IC50 (μM)”, `CC(C)C[C@H](NC(=O)[C@H](CO)NC(=O)[C@@H](NC(=O)[C@H](CC(=O)O)NC(=O)[C@H](CC(C)C)NC(=O)Cc1ccc2ccc3cccc4ccc1c2c34)[C@@H](C)O)C(N)=O` [Example 29, Paa-Leu-Asp-Thr-Ser-Leu] showed a concentration for half-maximal inhibition (IC50) of 0.5 µM.
With `CC(C)C[C@H](NC(=O)[C@H](CO)NC(=O)[C@@H](NC(=O)[C@H](CC(=O)O)NC(=O)[C@H](CC(C)C)NC(=O)[C@@H]1CCCN1C(=O)CCCc1ccc2ccc3cccc4ccc1c2c34)[C@@H](C)O)C(N)=O` [Example 30, Pba-Pro-Leu-Asp-Thr-Ser-Leu] ({Butanoyl(4-pyren-1-yl)}-PLDTSL-NH2), the IC50 (IC50 (μM)) amounted to 47 µM.
For `CC(C)C[C@H](NC(=O)[C@H](CO)NC(=O)[C@@H](NC(=O)[C@H](CC(=O)O)NC(=O)[C@H](CC(C)C)NC(=O)C(c1ccccc1)c1ccccc1)[C@@H](C)O)C(N)=O` [Example 31, Dpa-Leu-Asp-Thr-Ser-Leu], the half-maximal inhibitory concentration (IC50) (read-out: IC50) was found to be 11 µM.
For `CC(C)C[C@H](NC(=O)[C@H](CO)NC(=O)[C@@H](NC(=O)[C@H](CC(=O)O)NC(=O)[C@H](CC(C)C)NC(=O)c1cc(-c2ccccc2)cc(-c2ccccc2)c1)[C@@H](C)O)C(N)=O` [Example 32, Dphb-Leu-Asp-Thr-Ser-Leu], the IC50 (read-out: IC50) is 15 µM.
In turn, `CC(C)C[C@H](NC(=O)[C@H](CO)NC(=O)[C@@H](NC(=O)[C@H](CC(=O)O)NC(=O)[C@H](CC(C)C)NC(=O)c1ccc2ccc3cccc4ccc1c2c34)[C@@H](C)O)C(N)=O` [Example 34, Pca-Leu-Asp-Thr-Ser-Leu] registered an IC50 (IC50 (μM)) of 2.1 µM.
The same measure, in the same setting: then `CC(C)C[C@H](NC(=O)[C@H](CO)NC(=O)[C@@H](NC(=O)[C@H](CC(=O)O)NC(=O)[C@H](CC(C)C)NC(=O)CCCc1ccc2ccc3cccc4ccc1c2c34)[C@@H](C)O)C(N)=O` [Example 36, Pba-Leu-Asp-Thr-Ser-Leu], with 4 µM.
With `CC(C)C[C@H](NC(=O)[C@H](CO)NC(=O)[C@@H](NC(=O)[C@H](CC(=O)O)NC(=O)[C@H](CC(C)C)NC(=O)CC(c1ccccc1)(c1ccccc1)c1ccccc1)[C@@H](C)O)C(N)=O` [Example 37, Tphp-Leu-Asp-Thr-Ser-Leu], for the setting “read-out: IC50”, the IC50 amounted to 14 µM.

What is called inhibition is the share of the control response that was lost under treatment. A word on the IC50: it is the concentration that gives 50% inhibition.
